Test results: ChEMBL document CHEMBL1135839, “Design and synthesis of novel benzofurans as a new class of antifungal agents targeting fungal N-myristoyltransferase. Part 2” (Bioorg Med Chem Lett, 2002)

Tests used:
Candida albicans [1] = test: Antifungal activity expressed as inhibitory concentration against Candida albicans CY1002 in YNBPB medium; format: functional, organism-based
[2] = molecular target: Candida albicans N-myristoyltransferase (Candida albicans); test: Inhibitory activity against Candida albicans N-Myristoyltransferase (CaNmt) assessed as inhibitory concentration using substrate peptide and myristotyl-CoA at 0.5 uM
Candida albicans [3] = test: Antifungal activity expressed as inhibitory concentration against Candida albicans CY1002 in calf serum; format: functional, organism-based
[4] = molecular target: T1, Peptide N-myristoyltransferase (Homo sapiens, UniProt P30419+O60551); test: Inhibitory activity against human N-Myristoyltransferase (HsNmt) assessed as inhibitory concentration using substrate peptide and myristotyl-CoA at 0.5 uM; format: protein assay
T1 sequence (P30419 whole entry): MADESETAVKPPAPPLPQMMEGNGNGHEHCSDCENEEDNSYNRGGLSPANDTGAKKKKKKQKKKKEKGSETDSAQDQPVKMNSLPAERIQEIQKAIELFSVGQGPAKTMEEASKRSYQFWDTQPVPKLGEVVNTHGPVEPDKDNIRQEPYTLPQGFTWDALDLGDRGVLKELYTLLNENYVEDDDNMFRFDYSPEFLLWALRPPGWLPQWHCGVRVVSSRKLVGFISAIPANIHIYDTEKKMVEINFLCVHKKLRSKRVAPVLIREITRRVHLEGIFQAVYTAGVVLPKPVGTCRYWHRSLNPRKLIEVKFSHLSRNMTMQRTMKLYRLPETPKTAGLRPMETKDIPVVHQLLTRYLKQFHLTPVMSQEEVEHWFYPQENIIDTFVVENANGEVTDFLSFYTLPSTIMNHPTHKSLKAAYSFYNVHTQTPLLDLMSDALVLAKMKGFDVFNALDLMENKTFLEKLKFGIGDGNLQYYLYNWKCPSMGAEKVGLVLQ
T1 sequence (O60551 whole entry): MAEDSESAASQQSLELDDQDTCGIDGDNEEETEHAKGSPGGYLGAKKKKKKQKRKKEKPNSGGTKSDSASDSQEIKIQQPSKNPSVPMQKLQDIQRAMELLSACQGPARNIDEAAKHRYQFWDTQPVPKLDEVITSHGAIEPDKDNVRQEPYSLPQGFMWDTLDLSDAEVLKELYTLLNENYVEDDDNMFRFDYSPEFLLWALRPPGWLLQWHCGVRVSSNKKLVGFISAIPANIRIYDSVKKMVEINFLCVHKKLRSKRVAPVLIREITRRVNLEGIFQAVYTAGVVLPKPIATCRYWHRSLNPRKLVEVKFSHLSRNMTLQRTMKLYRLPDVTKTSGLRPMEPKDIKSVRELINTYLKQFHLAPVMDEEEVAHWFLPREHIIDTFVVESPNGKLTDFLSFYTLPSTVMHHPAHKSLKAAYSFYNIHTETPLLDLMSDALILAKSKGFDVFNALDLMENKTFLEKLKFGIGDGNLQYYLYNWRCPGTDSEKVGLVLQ

[5] = Plasma concentration expressed as area under curve after intravenous administration was determined in rat; format: ADME, organism-based
[6] = Half life of compound determined after intravenous administration to rat; format: ADME, organism-based; conditions: in vivo
[7] = molecular target: Candida albicans N-myristoyltransferase (Candida albicans); test: Inhibitory activity against Candida albicans N-Myristoyltransferase (Nmt)
[8] = molecular target: Candida albicans N-myristoyltransferase (Candida albicans); test: Inhibitory activity against Candida albicans (Nmt) assessed as inhibitory concentration (nM)
Rattus norvegicus = test: Effective dose required against Candida albicans for 50% survival on intravenous administration in rats; format: functional
[9] = molecular target: Candida albicans N-myristoyltransferase (Candida albicans); test: Inhibitory activity against Candida albicans (Nmt) assessed as inhibitory concentration
Candida albicans [10] = test: Antifungal activity expressed as inhibitory concentration against Candida albicans in calf serum; format: functional, organism-based

Row | Compound | IC50 (Candida albicans [1]) [µM] | IC50 [2] [µM] | IC50 (Candida albicans [3]) [µM] | IC50 [4] [µM] | AUC [5] [ng·h/mL] | half-life [6] [h] | IC50 [7] [µM] | IC50 [8] [µM] | ED50 (Rattus norvegicus) [mg/kg] | IC50 [9] [µM] | IC50 (Candida albicans [10]) [µM]
1 | Cc1c(COc2cccc(F)c2)oc2cccc(OCCCNCc3cccnc3)c12 | 0.11 | 0.11 | 3.3 | > 110 | 370 | 1.5 |  |  |  |  | 
2 | Cc1c(C(=O)Nc2ccccc2)oc2cccc(OCCCNCc3cccnc3)c12 | 12 | 2.2 |  | > 480 | 240 | 0.9 |  |  |  |  | 
3 | Cc1c(COc2cccc(F)c2F)oc2cccc(OCCCNCc3cccnc3)c12 | 0.08 |  | 0.57 |  | 500 | 1.9 |  |  |  |  | 
4 | Cc1c(COc2ccc(C#N)cc2)oc2cccc(OCCCNCc3cccnc3)c12 | 0.16 | 0.0094 | 1.4 | > 460 | 340 | 1.2 | 0.0094 |  |  |  | 
5 | Cc1c(COc2ccc(F)cc2)oc2cccc(OCCCNCc3cccnc3)c12 | 0.021 | 0.0052 | 0.7 | 67 | 340 | 1.9 |  | 0.0052 |  |  | 
6 | Cc1c(COc2ccc(Br)cc2F)oc2cccc(OCCCNCc3cccnc3)c12 | 0.074 | 0.028 | 1.3 | > 400 | 360 | 3.6 |  |  | > 30 |  | 
7 | CCOC(=O)c1oc2cccc(OCCCNCc3cccnc3)c2c1C |  |  |  | > 450 | 330 | 0.4 |  |  |  |  | 
8 | Cc1c(CCc2ccccc2)oc2cccc(OCCCNCc3cccnc3)c12 | 13 | 1.2 | > 240 | 12 | 290 | 1.1 |  |  |  |  | 
9 | Cc1c(COc2ccc(F)cc2F)oc2cccc(OCCCNCc3cccnc3)c12 | 0.03 | 0.0075 | 0.34 | > 450 | 420 | 1.6 |  | 0.0075 | 7.1 |  | 
10 | Cc1c(COc2ccccc2)oc2cccc(OCCCNCc3cccnc3)c12 | 0.37 | 0.072 |  | 77 | 670 | 1.9 |  |  |  |  | 
11 | Cc1c(COc2ccc(F)c(F)c2F)oc2cccc(OCCCNCc3cccnc3)c12 | 0.035 |  | 0.33 |  | 330 | 2 |  |  | 7.1 |  | 
12 | Cc1c(COc2ccccc2F)oc2cccc(OCCCNCc3cccnc3)c12 | 0.04 | 0.0083 | 0.6 | > 470 | 560 | 1.6 |  |  |  | 0.0083 | 
13 | Cc1c(COc2ccccc2C#N)oc2cccc(OCCCNCc3cccnc3)c12 | 1.2 | 0.017 | 3.3 | 19 | 280 | 0.5 |  |  |  |  | 
14 | Cc1c(COc2ccc(Cl)cc2)oc2cccc(OCCCNCc3cccnc3)c12 | 0.92 | 0.073 | 6.6 | > 110 | 330 | 2.4 |  |  |  |  | 
15 | Cc1c(CSc2ccccc2)oc2cccc(OCCCNCc3cccnc3)c12 | 11 |  | 180 |  | 390 | 1.4 |  |  |  |  | 
16 | OC(Cn1cncn1)(Cn1cncn1)c1ccc(F)cc1F [FLUCONAZOLE] |  |  | 0.5 |  | 19.6 | 4 |  |  |  |  | 0.5
